Results from PubChem BioAssay AID488879 (Sanford-Burnham Center for Chemical Genomics, 2010).
Active and inactive are the calls of the source. How the calls were made is not given here.

Each compound was assayed against alkaline phosphatase, placental type (Homo sapiens) (assay: PLAP enzyme inhibitors, dose response, selectivity assay for mouse IAP inhibitor project, biochemical, uHTS hits (AID 488879)). Settings: purified human placental alkaline phosphatase, enzymatic inhibition.

Compound | IC50
OCCCN1c2ccccc2Nc2nnc(-c3ccccc3)cc21 | > 100 µM (inactive)
CCN(C(=O)C(C)N1C(=O)/C(=C/c2ccco2)SC1=S)C1CCS(=O)(=O)C1 (stereo unspecified) | 7.78 µM
CCOc1ccccc1CNC(=O)CCNS(=O)(=O)c1ccc2[nH]c(=O)oc2c1 | > 100 µM (inactive)
O=c1ccc2c(-c3ccccc3S(=O)(=O)O)c3ccc(O)c(O)c3oc-2c1O | > 100 µM (inactive)
Cc1nonc1C(=O)N/N=C/c1ccc(O)c(O)c1 | 18 µM
CCc1cc(Cn2nc(-c3ccccc3)cc2C(=O)NCc2cccc(Br)c2)on1 | > 100 µM (inactive)
CCOC(=O)c1ccc(N2CCN(c3ccccc3F)CC2)c(NC(=O)Nc2ccccc2)c1 | > 100 µM (inactive)
CCOc1ccc(S(=O)(=O)Nc2ccc(O)c(Sc3ncn[nH]3)c2)cc1 | 20.5 µM
COc1cc(NC(=S)NCCC(c2ccccc2)c2ccccc2)cc(OC)c1 | > 100 µM (inactive)
FC(F)Sc1ccc(NC(=S)NC(c2ccccc2)c2ccccc2)cc1 | > 100 µM (inactive)
COc1ccc(N2C(=O)/C(=C/c3ccco3)C(=O)NC2=S)cc1 | 64.9 µM
CC(C(=O)O)N1C(=O)/C(=C/C=C/c2ccco2)SC1=S (stereo unspecified) | > 100 µM (inactive)
NS(=O)(=O)c1ccc2c(c1)oc(=O)c1cc(S(N)(=O)=O)ccc12 | > 100 µM (inactive)
C#CCOCCOCCOCCNc1nc(N2CCN(C(=O)CCCCCCCCCCNC(=O)[C@H](CO)n3cc(CCCSC)nn3)CC2)nc(N2CCN(C(=O)CCCCCCCCCCNC(=O)[C@H](CCCN=C(N)N)n3cc(C[C@@H](C)CC)nn3)CC2)n1 | > 100 µM (inactive)
O=C(O)CC(C(=O)O)N1C(=O)/C(=C/C=C/c2ccco2)SC1=S (stereo unspecified) | > 100 µM (inactive)
O=c1[nH]c2ccc(S(=O)(=O)N3CCCCC3)cc2o1 | > 100 µM (inactive)
CN(c1ccccc1C(=O)O)S(=O)(=O)c1ccc2c3c(cccc13)C(=O)N2 | > 100 µM (inactive)
O=C(O)CNS(=O)(=O)c1ccc2c3c(cccc13)C(=O)N2 | > 100 µM (inactive)
CCn1c(SCC(=O)c2ccc(O)c(O)c2)nnc1-c1ccccc1OC | > 100 µM (inactive)
COC(=O)c1ccc(NS(=O)(=O)c2ccc3[nH]c(=O)oc3c2)cc1 | > 100 µM (inactive)
O=[N+]([O-])c1ccccc1NC(=S)N/N=C/c1ccc(O)c(O)c1 | > 100 µM (inactive)
O=C(COC(=O)c1ccccc1)Nc1ncc([N+](=O)[O-])s1 | 60.2 µM

Compound | IC50
CCn1cc(CN2CCC(C(=O)Nc3cccc(-c4cccc(Cl)c4)c3)CC2)c(C)n1 | > 100 µM (inactive)
O=C(COc1ccccc1C(=O)N/N=C\c1ccc(O)c(O)c1)N/N=C/c1ccc(O)c(O)c1 | > 100 µM (inactive)
CCN1/C(=C/C=C/c2sc3ccccc3[n+]2CC)Sc2ccccc21 | > 100 µM (inactive)
CCCCCOc1ccc(C(=O)CCC(=O)NNC(=O)c2ccncc2)cc1 | > 100 µM (inactive)
Cc1ccc(NC(=S)NCc2ccccc2)cc1S(=O)(=O)N1CCCCC1 | > 100 µM (inactive)
CN(CC(=O)NC(c1ccccc1)c1ccccc1)Cc1nc2ccccc2c(=O)[nH]1 | > 100 µM (inactive)
S=C(NCCC(c1ccccc1)c1ccccc1)Nc1cccc(Cl)c1 | 72.7 µM
C#CCOCCOCCOCCNc1nc(N2CCN(C(=O)CCCCCCCCCCNC(=O)Cn3cc(CCCCCN)nn3)CC2)nc(N2CCN(C(=O)CCCCCCCCCCNC(=O)[C@@H](CCSC)n3cc(CCO)nn3)CC2)n1 | > 100 µM (inactive)
COc1cc(OC)c2c(c1O)OC(c1ccccc1)CC2=O (stereo unspecified) | > 100 µM (inactive)
CCOc1ccc(S(=O)(=O)Nc2cc(Sc3ncn[nH]3)c3oc(=O)sc3c2)cc1 | > 100 µM (inactive)
COCc1ccc(CN2CCC(C(=O)Nc3cccc(-c4cccc(Cl)c4)c3)CC2)o1 | > 100 µM (inactive)
O=C1CSC(=S)N1/N=C/c1ccc(O)c(O)c1O | > 100 µM (inactive)
Clc1ccc(C(c2ccc(Cl)cc2)n2cc[n+](CC(OCc3ccc(Cl)cc3Cl)c3ccc(Cl)cc3Cl)c2)cc1 (stereo unspecified) | > 100 µM (inactive)
Cc1ccc(CN2C3CCCC2CC(NC(=O)Nc2cccc(F)c2)C3)cc1 (stereo unspecified) | > 100 µM (inactive)
Cn1nc([N+](=O)[O-])nc1S(C)(=O)=O | > 100 µM (inactive)
O=C(COC(=O)COc1ccccc1)Nc1ncc([N+](=O)[O-])s1 | > 100 µM (inactive)
COc1cccc(NC(=S)NCCC(c2ccccc2)c2ccccc2)c1 | > 100 µM (inactive)
CCOC(=O)C1=C(C)N=c2s/c(=C/c3cccc([N+](=O)[O-])c3O)c(=O)n2C1c1ccc(OC)cc1OC (stereo unspecified) | > 100 µM (inactive)
O=C(CCN1C(=O)/C(=C/c2ccco2)SC1=S)Nc1ccc(O)cc1C(=O)O | > 100 µM (inactive)
CN=c1scc(-c2ccco2)n1/N=C/c1ccc(O)c(O)c1 | > 100 µM (inactive)
COC(=O)C/C=N/N=C1/NC(=O)/C(=C/C(=O)O)S1 | 8.44 µM
O=C(NC1CCCCC1)Oc1cc2oc(=O)sc2cc1Cl | 5.95 µM

Compound | IC50
O=C(CCNS(=O)(=O)c1ccc2[nH]c(=O)oc2c1)Nc1ccccc1 | 42.5 µM
C=CCn1cc(CN2CCC(C(=O)Nc3cccc(-c4cccc(Cl)c4)c3)CC2)c(C)n1 | 34.3 µM
O=C(CSc1ncn[nH]1)CSc1ncn[nH]1 | 23 µM
O=C1/C(=C/c2ccc(O)c(O)c2)Oc2cc(O)ccc21 | 67.2 µM
O=C(CN1C(=O)/C(=C/c2ccco2)SC1=S)Nc1ccc(O)c(C(=O)O)c1 | 17.2 µM
C#CCOCCOCCOCCNc1nc(N2CCN(C(=O)CCCCCCCCCCNC(=O)Cn3cc(C[C@@H](C)O)nn3)CC2)nc(N2CCN(C(=O)CCCCCCCCCCNC(=O)[C@@H](CCSC)n3cc(CCO)nn3)CC2)n1 | 39.9 µM
FC(F)Oc1ccc(NC(=S)NC2CCSc3ccccc32)cc1 (stereo unspecified) | > 100 µM (inactive)
O=C1CNC(=S)N1CCc1ccc(O)c(O)c1 | > 100 µM (inactive)
O=C(NN1C(=O)/C(=C/c2ccc(O)cc2)SC1=S)c1ccccc1O | > 100 µM (inactive)
Cc1ccc(Cl)c2c1=NC(=O)C=2c1[nH]c(=S)[nH]c1O | > 100 µM (inactive)
C#CCOCCOCCOCCNc1nc(N2CCN(C(=O)CCCCCCCCCCNC(=O)Cn3cc(C[C@@H](C)O)nn3)CC2)nc(N2CCN(C(=O)CCCCCCCCCCNC(=O)[C@H](CCCCN)n3cc(C[C@@H](C)CC)nn3)CC2)n1 | > 100 µM (inactive)
Cc1ccc(S(=O)(=O)Nc2ccc(O)c(Sc3ncn[nH]3)c2)cc1 | > 100 µM (inactive)
COc1cc(/C=N/N2C(=O)CSC2=S)ccc1O | > 100 µM (inactive)
COc1ccc(C2CC(c3ccccc3Cl)=NN2c2ccc(S(N)(=O)=O)cc2)cc1 (stereo unspecified) | > 100 µM (inactive)
N#Cc1c(SCC(=O)Nc2nccs2)sc2c(O)cc(=O)[nH]c12 | > 100 µM (inactive)
N#C/C(=C\c1ccc(O)c(O)c1)C(=O)Nc1cccc2ncccc12 | 7.32 µM
Nc1nnc(CC(=O)N/N=C/c2cc([N+](=O)[O-])cc(Br)c2O)s1 | > 100 µM (inactive)
Cc1nn(C(C)C)c(C)c1CN1CCC(C(=O)Nc2cccc(-c3cccc(F)c3)c2)CC1 | 56.6 µM
O=C(Nc1ccc(Cl)cc1)NC1CCCCC1Cc1ccco1 (stereo unspecified) | > 100 µM (inactive)
Cc1cc(F)ccc1S(=O)(=O)Nc1ccc(O)c(Sc2ncn[nH]2)c1 | 6.94 µM
O=C1N=c2ccccc2=C1c1sc(=S)n(NC(=O)c2ccccc2)c1O | 5.31 µM
COc1cc(/C=N/NC(=O)c2cc(O)cc(O)c2)ccc1OC(=O)c1ccccc1 | 70.1 µM
